# Assay results from patent US9956291B2, “Nanoformulation and methods of use of thyroid receptor beta1 agonists for liver targeting” (priority 2012, dated 2018).
# Columns and labels:
# [1] = in vivo; cited from earlier work
# high fat diet mice = assay: Nutritionally-induced hypercholesterolemia model (high fat diet mice); assay type: in vivo
# Method: Mice were fed a high fat diet (TD.06414, Harlan Research Diet, Inc., Indianapolis, Ind.) that provides […] from fat sources increased total cholesterol. […] Male C57BL/6 mice were fed either a commercial chow diet (Prolab RMH 3000, PMI feeds, St. Louis, Mo.) to serve as a negative control, or a high fat diet (TD.06414). Plasma was collected once weekly to monitor the level of LDL-C, total cholesterol, HDL-C, and triglyceride. […] One group was treated with vehicle, and the other groups are treated with TRβ1 agonist compounds versus its Nano-targeted ones at different doses.
# High-fat diet (HFD)-induced dyslipidemia in mice. FIG. 12 depicts dose-ranging of Chitosan-PLGA NP-encapsulated GC-1 and conjugated with Glycyrrhetinic acid versus un-encapsulated GC-1 for lowering total cholesterol in HFD mice, in accordance with embodiments of the present invention.
# [2] = cited from earlier work
# LDLR [3] = assay: Test for LDLR up-regulation in HepG2 cells (endogenous LDLR); assay type: cell-based, human
# Method: (§1) The expression vector of human LDLR was constructed under the control of the cytomegalovirus promoter-enhancer (pCMV-LDLR). These constructs were used to transiently transfect mammalian cells, and cells were subjected to SDS-PAGE and immunoblot analysis using an LDLR antibody. […] Using this assay, compounds were tested for their ability to reduce the degradation of the LDLR. HEK-293 cells grown in 96-well plates overnight and transfected with LDLR were used. Compounds dissolved in DMSO or vehicle were added to the culture media, and incubated for 24-48 hours. The cells were then lysed. Both cell lysate and supernatant are subjected to quantitation using the above immunoassay. Compounds that increase the up-regulation of LDLR were selected. A similar assay was implemented using the HepG2 cells, since these cells express the LDLR endogenously.
# LDLR [4] = assay: Test for LDLR up-regulation in transfected HEK-293 cells; assay type: cell-based, human
# Method: as §1
# cartilage = conditions: dogs, up to 12 months; cited from earlier work
# [5] = moderately overweight and hypercholesterolemic subjects, two weeks
Structure (SMILES),serum cholesterol and triglyceride [1],reduction of serum total cholesterol (high fat diet mice; 0.1 mg/Kg daily for 6 days),"effects on the heart [2, 5]","serum total and LDL cholesterol, apoB levels [2, 5]",LDLR up-regulation (LDLR [3]),LDLR up-regulation (LDLR [4]),cartilage damage (cartilage),"dose of maximum effect on total cholesterol (toward normal regular diet levels) (high fat diet mice; IP daily, week 1 and week 2) [mg/kg]","lowering of total cholesterol (high fat diet mice; IP daily, week 1 and week 2, dose-ranging)",lowering serum cholesterol and triglyceride ([2]; Phase I clinical trial)
CC(C)c1cc(Oc2c(Br)cc(NC(=O)CC(=O)O)cc2Br)ccc1O [KB-2115],lower serum cholesterol and triglyceride,60-80%,without detectable effects on the heart,reduced,"None of the TR beta agonists including GC-1, KB-2115 or their nanoformulations resulted in any significant changes","None of the TR beta agonists including GC-1, KB-2115 or their nanoformulations resulted in any significant changes",Cartilage damage was observed,,,
Cc1cc(OCC(=O)O)cc(C)c1Cc1ccc(O)c(C(C)C)c1 [GC-1],lower serum cholesterol and triglyceride,,,,"None of the TR beta agonists including GC-1, KB-2115 or their nanoformulations resulted in any significant changes","None of the TR beta agonists including GC-1, KB-2115 or their nanoformulations resulted in any significant changes",,1.0,dose-dependent lowering of total cholesterol,effective in lowering serum cholesterol and triglyceride
